Here are results for 2 compounds from US10456407B2, “Combination therapy for treating cancer” (Epizyme, Inc., priority 2015, dated 2019).

The test system of assay [1] is OCI-Ly19 cells. The experiment in a line: RT2 Glucocorticoid signaling PCR array, OCI-LY19 (Table 4a, printed OCT) cell line. To be noted: vs DMSO; for ΔΔCT, AFF1: gene AFF1; for ΔΔCT, AMPD3: gene AMPD3; for ΔΔCT, ANXA4: gene ANXA4; for ΔΔCT, CEBPA: gene CEBPA; for ΔΔCT, CREB1: gene CREB1; for ΔΔCT, CREB3: gene CREB3; for ΔΔCT, GHRHR: gene GHRHR; for ΔΔCT, GOT1: gene GOT1; for ΔΔCT, PER1: gene PER1; for ΔΔCT, RGS2: gene RGS2; for ΔΔCT, SPSB1: gene SPSB1; for ΔΔCT, TBL1XR1: gene TBL1XR1; for ΔΔCT, TNF: gene TNF; for ΔΔCT, VLDLR: gene VLDLR. It counts as cell-based. The text has this:
Expression levels of (A). Sestrin; (B). TNF and (C) GILZ normalized to DMSO controls for each cell line with the indicated single agent or combination.

Assay [2] has as its system SU-DHL10 cells. The procedure:
(§1) After 3 days of co-treatment, cell viability was measured via ATP content using CellTiter-Glo®
(§2) Synergy quantification is performed using the Chou-Talalay method^3 for drug combination. The Combination Index (CI) equation offers a quantitative definition for additivity (CI=1), synergism (CI<1), and antagonism (CI>1). This equation used Fa values from a constant ratio of drug combination to determine CI values. […] These Fa-CI plots are generated using the Calcusyn software.
(§3) After 3 days of co-treatment (5 days for Toledo assays), cell viability was measured via ATP content using CellTiter-Glo® (Promega) and luminescence was detected using a SpectraMax M5 microplate reader (Molecular Devices).
(§4) Synergy quantification is performed using the Chou-Talalay method for drug combination (Ref 1). The Combination Index (CI) equation offers a quantitative definition for additivity (CI=1), synergism (CI<1), and antagonism (CI>1). This equation used fractional effect (Fa) values from a constant ratio of drug combination to determine CI values. […] These Fa-CI plots are generated using the Calcusyn for Windows software (Ref2).
(§5) Dose responses were plotted using Graphpad Prism and either 50% or 60% inhibitory concentrations were interpolated from the dose response curves.

For assay [3], the system named is WSU-DLCL2 cells. The procedure:
as §1, §2, §3, §4, §5

Assay [4] relates to DOHH2 cells. As to conditions: DOHH2 (WT EZH2 GCB); drug combined with Compound 44. As to the method: as §1, §2, §3, §4, §5
The subject of assay [5] is Toledo cells. To be noted: Toledo (WT EZH2 ABC); drug combined with Compound 44. As to the method: as §1, §2, §3, §4, §5
Assay [6] concerns H3K27me3. To be noted: 4 days. As to the method: Histones were extracted from tumor samples as described above. […] The plates were sealed and incubated overnight at 4° C. The following day, plates were washed 3× with 300 ul/well PBST (PBS+0.05% Tween 20; 10×PBST, KPL #51-14-02) on a Bio Tek plate washer. Plates were blocked with 300 ul/well of diluent (PBS+2% BSA+0.05% Tween 20), incubated at RT for 2 hours, and washed 3× with PBST. All antibodies were diluted in diluent. […] Plates were incubated for 90 min at RT and washed 3× with PBST. […] Plates were washed 4× with PBST. For detection, 100 ul/well of TMB substrate (BioFx Laboratories, #TMBS) was added and plates incubated in the dark at RT for 5 min. Reaction was stopped with 100 ul/well IN H2SO4 Absorbance at 450 nm was read on SpectaMax M5 Microplate reader.

Assay [7] concerns H3K27 acetylation. As to conditions: WSU-DLCL2, OCI-LY19, RL cells; 4 days.

Read-outs that look alike come from different tables or passages of the source.

In the case of `CCN(c1cc(-c2ccc(CN3CCOCC3)cc2)cc(C(=O)NCc2c(C)cc(C)[nH]c2=O)c1C)C1CCOCC1` [Compound 44], in assay [1], the “ΔΔCT, AFF1” value is −0.008; the “ΔΔCT, AMPD3” value is reported as −0.654; the “ΔΔCT, ANXA4” value was −0.154; the “ΔΔCT, CEBPA” value is −2.891. In assay [1], the “ΔΔCT, CREB1” value worked out at 0.006; the “ΔΔCT, CREB3” value is 0.057; the “ΔΔCT, GHRHR” value was −4.040; the “ΔΔCT, GOT1” value is −0.084. In assay [1], the “ΔΔCT, PER1” value turned out to be 0.674; the “ΔΔCT, RGS2” value is given as −0.968; the “ΔΔCT, SPSB1” value was −0.097; the “ΔΔCT, TBL1XR1” value is listed as −0.043. Besides, in assay [1], the “ΔΔCT, TNF” value is −0.600 and the “ΔΔCT, VLDLR” value is −0.280.
For `C[C@]12C=CC(=O)C=C1CC[C@@H]1[C@@H]2[C@@H](O)C[C@@]2(C)[C@H]1CC[C@]2(O)C(=O)CO` [Prednisolone, prednisolone], the “Summary of Combinations with Compound 44: potency enhanced” value (from here on “Summary … potency enhanced”) in assay [2] (SU-DHL 10 (EZH2 mutant GCB), drug combined with Compound 44) is on record as “potency enhanced 3x”. Further, the “growth inhibition by the drug by itself” value in assay [2] (SU-DHL10, single agent) is recorded as “no sensitivity”. The “Summary … potency enhanced” value in assay [3] (WSU-DLCL2 (EZH2 mutant GCB), drug combined with Compound 44) is given as “potency enhanced 7x”. Also, the “growth inhibition by the drug by itself” value in assay [3] (WSU-DLCL2, single agent) is “no sensitivity”. The “Summary … potency enhanced” value in assay [4] is “potency enhanced 2x”. Also, the “Summary of Combinations with Compound 44 (combination effect)” value in assay [5] is on record as “no effect”. In assay [6] (OCI-LY19 cells, at higher doses), the “effect on H3K27 trimethylation (H3K27me3)” value (shortened to “effect … (H3K27me3)”) is on record as “modest increase”. Besides, the “effect … (H3K27me3)” value in assay [6] (RL cells) is “did not have any effect”. Besides, in assay [6] (WSU-DLCL2 cells), the “effect … (H3K27me3)” value was “did not have any effect”. Besides, in assay [1], the “ΔΔCT, AFF1” value is given as −0.304; the “ΔΔCT, AMPD3” value is given as −0.109; the “ΔΔCT, ANXA4” value was found to be 0.189; the “ΔΔCT, CEBPA” value came out at 0.031. Moreover, in assay [1], the “ΔΔCT, CREB1” value turned out to be 0.060; the “ΔΔCT, CREB3” value is −0.156; the “ΔΔCT, GHRHR” value is listed as −2.603; the “ΔΔCT, GOT1” value worked out at 0.094. In assay [1], the “ΔΔCT, PER1” value turned out to be 0.263; the “ΔΔCT, RGS2” value was determined as 0.390; the “ΔΔCT, SPSB1” value is 0.387; the “ΔΔCT, TBL1XR1” value is −0.234. In addition, in assay [1], the “ΔΔCT, TNF” value was −0.773 and the “ΔΔCT, VLDLR” value is on record as 0.081. For the same compound, the H3K27 acetylation levels entry in assay [7] is given as “not globally affected”.
